Results reported in ChEMBL document CHEMBL1143113, “Design and synthesis of 4-[(s-triazin-2-ylamino)methyl]-N-(2-aminophenyl)-benzamides and their analogues as a novel class of histone deacetylase inhibitors” (Bioorg Med Chem Lett, 2008).
The source made the active and inactive calls. The rule behind the calls is not given here.

How the values were obtained:
[1] = tested on: HCT-116; experiment: Cytotoxicity against human HCT116 cells by MTT assay; format: functional, cell-based
[2] = target: T1, Histone deacetylase 1 (Homo sapiens, UniProt Q13547); experiment: Inhibition of human recombinant HDAC1
[3] = target: Histone deacetylase 4 (Homo sapiens) (UniProt P56524); experiment: Activity against HDAC4
[4] = target: Histone deacetylase 3 (Homo sapiens) (UniProt O15379); experiment: Activity against HDAC3
[5] = tested on: HCT-116; experiment: Antitumor activity in human HCT116 tumor bearing mouse at 40 mg/kg/day, ip after 2 weeks; format: functional; conditions: HCT-116, ip, 336 h, route intraperitoneal
[6] = target: T2, Histone deacetylase 7 (Homo sapiens) (UniProt Q8WUI4); experiment: Activity against HDAC7
T2 sequence (whole entry): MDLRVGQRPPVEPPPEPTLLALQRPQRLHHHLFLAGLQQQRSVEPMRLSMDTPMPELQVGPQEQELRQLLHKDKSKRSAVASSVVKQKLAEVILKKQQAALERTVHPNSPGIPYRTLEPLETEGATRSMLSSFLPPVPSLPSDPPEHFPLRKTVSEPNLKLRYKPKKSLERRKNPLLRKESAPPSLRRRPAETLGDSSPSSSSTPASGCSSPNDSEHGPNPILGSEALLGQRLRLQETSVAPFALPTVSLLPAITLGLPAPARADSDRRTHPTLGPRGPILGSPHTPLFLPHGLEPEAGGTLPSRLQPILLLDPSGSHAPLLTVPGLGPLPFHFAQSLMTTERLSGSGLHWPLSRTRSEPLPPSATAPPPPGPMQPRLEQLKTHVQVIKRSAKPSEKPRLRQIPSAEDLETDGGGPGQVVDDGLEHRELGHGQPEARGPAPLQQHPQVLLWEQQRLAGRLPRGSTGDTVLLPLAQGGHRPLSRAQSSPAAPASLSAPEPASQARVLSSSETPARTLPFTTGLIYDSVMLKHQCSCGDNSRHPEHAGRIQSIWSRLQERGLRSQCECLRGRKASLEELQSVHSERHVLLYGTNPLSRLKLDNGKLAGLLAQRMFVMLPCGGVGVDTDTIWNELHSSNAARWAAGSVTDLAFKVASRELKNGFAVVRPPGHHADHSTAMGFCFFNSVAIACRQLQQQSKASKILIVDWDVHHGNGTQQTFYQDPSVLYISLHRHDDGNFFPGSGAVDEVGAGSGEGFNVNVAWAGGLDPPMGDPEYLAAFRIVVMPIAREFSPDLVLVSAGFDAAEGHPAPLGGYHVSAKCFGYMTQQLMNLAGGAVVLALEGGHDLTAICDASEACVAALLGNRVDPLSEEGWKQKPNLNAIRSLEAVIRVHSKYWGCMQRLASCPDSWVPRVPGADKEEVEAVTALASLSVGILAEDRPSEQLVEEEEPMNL

[7] = target: Histone deacetylase 5 (Homo sapiens) (UniProt Q9UQL6); experiment: Activity against HDAC5
[8] = tested on: HMEC; experiment: Cytotoxicity against human HMEC cells by MTT assay; format: cell-based
[9] = target: T3, Protein deacetylase HDAC6 (Homo sapiens) (UniProt Q9UBN7); experiment: Activity against HDAC6
T3 sequence (whole entry): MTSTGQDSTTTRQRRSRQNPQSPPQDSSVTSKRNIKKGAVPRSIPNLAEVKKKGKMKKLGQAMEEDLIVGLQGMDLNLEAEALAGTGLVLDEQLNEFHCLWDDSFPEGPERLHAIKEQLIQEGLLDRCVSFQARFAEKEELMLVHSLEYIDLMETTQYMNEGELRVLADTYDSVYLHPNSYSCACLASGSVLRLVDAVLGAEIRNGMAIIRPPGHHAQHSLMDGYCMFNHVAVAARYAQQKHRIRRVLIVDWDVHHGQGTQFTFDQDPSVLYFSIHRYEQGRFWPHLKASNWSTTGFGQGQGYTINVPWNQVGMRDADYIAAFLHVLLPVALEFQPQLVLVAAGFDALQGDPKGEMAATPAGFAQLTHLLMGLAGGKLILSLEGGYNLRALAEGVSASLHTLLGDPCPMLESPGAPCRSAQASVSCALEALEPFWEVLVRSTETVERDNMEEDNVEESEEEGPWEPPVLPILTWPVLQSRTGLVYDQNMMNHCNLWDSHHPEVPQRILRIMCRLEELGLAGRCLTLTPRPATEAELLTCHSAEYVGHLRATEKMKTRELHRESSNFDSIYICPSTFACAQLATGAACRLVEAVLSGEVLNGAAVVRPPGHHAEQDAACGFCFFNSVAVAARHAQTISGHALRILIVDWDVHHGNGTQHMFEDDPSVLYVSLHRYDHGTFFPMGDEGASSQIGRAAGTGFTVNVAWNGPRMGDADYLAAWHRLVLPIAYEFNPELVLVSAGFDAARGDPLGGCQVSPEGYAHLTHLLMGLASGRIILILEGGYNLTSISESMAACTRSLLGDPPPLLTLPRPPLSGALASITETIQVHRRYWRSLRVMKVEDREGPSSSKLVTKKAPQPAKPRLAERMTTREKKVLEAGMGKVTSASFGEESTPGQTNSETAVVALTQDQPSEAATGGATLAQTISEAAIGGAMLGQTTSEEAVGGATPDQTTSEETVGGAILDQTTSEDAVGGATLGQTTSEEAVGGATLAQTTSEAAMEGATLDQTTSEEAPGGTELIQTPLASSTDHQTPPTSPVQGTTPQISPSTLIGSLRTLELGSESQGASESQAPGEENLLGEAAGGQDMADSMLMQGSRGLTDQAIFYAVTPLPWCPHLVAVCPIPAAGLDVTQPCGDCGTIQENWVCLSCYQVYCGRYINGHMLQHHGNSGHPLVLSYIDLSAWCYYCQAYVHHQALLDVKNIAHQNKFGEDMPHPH

[10] = Induction of histone H4 acetylation in human […]; format: functional, cell-based
[11] = target: Histone deacetylase 2 (Homo sapiens) (UniProt Q92769); experiment: Activity against HDAC2
[12] = target: T1, Histone deacetylase 1; experiment: Activity against HDAC1
[13] = tested on: HCT-116; experiment: Antitumor activity in human HCT116 tumor bearing mouse at 20 mg/kg/day, ip after 2 weeks; format: functional; conditions: HCT-116, ip, 336 h, route intraperitoneal

T1 sequence (Q13547 whole entry): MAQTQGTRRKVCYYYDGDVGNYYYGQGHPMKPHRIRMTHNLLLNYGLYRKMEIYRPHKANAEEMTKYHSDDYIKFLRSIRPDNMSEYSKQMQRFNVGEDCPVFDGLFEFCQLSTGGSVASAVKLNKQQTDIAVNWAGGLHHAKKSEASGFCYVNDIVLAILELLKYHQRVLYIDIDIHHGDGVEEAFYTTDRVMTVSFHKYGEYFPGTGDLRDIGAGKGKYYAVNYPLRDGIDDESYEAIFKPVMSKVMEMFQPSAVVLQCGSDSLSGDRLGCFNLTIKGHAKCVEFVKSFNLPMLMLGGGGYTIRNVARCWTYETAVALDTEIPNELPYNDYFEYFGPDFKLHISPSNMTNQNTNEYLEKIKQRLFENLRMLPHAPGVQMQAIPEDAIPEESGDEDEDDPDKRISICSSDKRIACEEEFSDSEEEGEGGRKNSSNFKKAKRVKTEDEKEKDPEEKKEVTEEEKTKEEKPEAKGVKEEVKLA
Sequence of Histone deacetylase 4 (Homo sapiens) (P56524 whole entry): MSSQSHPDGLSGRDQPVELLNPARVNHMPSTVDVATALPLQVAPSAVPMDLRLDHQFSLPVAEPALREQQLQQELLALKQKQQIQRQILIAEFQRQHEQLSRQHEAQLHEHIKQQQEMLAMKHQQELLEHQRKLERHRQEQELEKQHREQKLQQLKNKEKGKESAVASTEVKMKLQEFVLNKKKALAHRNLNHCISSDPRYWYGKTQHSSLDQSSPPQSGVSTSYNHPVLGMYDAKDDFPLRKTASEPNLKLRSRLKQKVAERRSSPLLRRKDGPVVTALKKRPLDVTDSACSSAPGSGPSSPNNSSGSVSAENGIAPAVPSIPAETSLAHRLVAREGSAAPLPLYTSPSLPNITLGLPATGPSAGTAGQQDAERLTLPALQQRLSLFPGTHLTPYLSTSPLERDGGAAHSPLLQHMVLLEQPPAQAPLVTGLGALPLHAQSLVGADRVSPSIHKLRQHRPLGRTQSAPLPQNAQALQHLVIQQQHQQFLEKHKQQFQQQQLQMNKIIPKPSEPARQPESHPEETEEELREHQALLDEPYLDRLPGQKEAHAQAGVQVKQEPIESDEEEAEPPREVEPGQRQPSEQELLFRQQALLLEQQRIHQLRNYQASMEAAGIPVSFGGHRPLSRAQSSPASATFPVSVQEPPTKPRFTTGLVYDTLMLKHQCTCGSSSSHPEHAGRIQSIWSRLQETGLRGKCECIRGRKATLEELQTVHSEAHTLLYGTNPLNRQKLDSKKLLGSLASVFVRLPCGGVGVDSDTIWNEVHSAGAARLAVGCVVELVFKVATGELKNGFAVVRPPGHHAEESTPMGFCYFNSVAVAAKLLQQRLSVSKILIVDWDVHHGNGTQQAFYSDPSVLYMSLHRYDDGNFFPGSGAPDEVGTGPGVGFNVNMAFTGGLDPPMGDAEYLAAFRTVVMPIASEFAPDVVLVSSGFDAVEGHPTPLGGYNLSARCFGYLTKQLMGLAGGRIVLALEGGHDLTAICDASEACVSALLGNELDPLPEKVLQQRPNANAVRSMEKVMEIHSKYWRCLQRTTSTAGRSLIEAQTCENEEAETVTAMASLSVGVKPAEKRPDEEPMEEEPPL
Sequence of Histone deacetylase 5 (Homo sapiens) (Q9UQL6 whole entry): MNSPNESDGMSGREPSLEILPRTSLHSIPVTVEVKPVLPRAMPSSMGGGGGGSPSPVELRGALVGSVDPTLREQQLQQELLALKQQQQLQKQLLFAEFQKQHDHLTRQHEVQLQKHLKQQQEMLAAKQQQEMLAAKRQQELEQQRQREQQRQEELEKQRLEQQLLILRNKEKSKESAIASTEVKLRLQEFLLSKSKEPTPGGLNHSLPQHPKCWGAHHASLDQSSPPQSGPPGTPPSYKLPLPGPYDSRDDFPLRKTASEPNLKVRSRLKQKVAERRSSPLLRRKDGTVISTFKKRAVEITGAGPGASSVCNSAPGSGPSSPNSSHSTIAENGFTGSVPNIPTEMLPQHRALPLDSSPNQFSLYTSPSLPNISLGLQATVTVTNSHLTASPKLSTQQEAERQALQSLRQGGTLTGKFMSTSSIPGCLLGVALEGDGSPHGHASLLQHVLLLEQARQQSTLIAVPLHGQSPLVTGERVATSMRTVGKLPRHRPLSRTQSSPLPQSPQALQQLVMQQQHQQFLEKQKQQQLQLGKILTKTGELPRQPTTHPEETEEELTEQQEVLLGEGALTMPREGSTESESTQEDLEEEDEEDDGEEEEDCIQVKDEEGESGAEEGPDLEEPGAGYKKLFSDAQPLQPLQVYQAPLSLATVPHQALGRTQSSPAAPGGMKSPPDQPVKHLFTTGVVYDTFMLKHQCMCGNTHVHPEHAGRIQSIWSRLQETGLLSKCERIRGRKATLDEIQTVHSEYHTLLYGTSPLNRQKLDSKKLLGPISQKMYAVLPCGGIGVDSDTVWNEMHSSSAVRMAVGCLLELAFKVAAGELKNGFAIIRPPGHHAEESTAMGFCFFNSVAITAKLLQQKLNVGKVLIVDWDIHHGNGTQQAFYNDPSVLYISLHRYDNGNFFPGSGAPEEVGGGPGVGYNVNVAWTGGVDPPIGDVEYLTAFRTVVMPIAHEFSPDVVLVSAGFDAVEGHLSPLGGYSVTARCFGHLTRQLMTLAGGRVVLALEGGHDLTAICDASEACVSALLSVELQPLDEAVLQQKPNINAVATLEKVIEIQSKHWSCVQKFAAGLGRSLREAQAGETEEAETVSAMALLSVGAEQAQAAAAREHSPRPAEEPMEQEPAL
Sequence of Histone deacetylase 3 (Homo sapiens) (O15379 whole entry): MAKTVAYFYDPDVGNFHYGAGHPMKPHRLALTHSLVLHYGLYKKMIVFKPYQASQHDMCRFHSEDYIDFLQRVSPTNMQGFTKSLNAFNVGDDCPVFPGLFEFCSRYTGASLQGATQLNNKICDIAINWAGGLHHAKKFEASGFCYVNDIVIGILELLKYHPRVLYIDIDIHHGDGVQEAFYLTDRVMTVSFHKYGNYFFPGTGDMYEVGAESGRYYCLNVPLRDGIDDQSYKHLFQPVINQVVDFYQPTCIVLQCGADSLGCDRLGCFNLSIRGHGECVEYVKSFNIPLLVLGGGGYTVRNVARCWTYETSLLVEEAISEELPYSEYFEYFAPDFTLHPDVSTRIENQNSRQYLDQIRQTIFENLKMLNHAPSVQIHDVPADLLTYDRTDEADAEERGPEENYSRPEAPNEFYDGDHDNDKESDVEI
Sequence of Histone deacetylase 2 (Homo sapiens) (Q92769 whole entry): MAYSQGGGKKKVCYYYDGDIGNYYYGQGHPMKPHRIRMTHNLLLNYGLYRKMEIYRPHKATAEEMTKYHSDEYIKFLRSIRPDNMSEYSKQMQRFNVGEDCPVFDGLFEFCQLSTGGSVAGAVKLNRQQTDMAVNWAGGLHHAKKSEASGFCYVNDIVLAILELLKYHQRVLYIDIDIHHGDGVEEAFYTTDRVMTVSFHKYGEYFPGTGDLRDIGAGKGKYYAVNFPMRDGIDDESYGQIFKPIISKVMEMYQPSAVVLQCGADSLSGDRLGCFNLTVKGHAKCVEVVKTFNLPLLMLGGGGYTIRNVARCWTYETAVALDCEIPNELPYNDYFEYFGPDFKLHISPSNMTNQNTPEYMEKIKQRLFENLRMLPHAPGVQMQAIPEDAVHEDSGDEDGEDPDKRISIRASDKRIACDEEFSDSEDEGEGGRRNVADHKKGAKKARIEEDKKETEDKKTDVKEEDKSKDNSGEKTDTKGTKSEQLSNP

Row | SMILES | IC50 [1] | IC50 [2] | IC50 [8] | EC50 [10] | also measured
1 | COc1ccc(NCc2ccc(C(=O)Nc3ccccc3N)cc2)cn1 | 700 nM | 100 nM | – | – | –
2 | Nc1nc(NCc2ccc(C(=O)Nc3ccccc3N)cc2)nc(NC2CCCC2)n1 | 700 nM | 200 nM | 11000 nM | 800 nM | Activity [3]: inactive; Activity [4]: Active; inhibition in vivo at 40 mg/kg/day [5]: 50%; Activity [6]: inactive; Activity [7]: inactive; Activity [9]: inactive; Activity [11]: Active; Activity [12]: Active
3 | Nc1nc(NCc2ccc(C(=O)Nc3ccccc3N)cc2)nc(N2CCc3ccccc32)n1 | 800 nM | 100 nM | 10000 nM | 1000 nM | –
4 | Nc1ccccc1NC(=O)c1ccc(CNc2cccc(F)n2)cc1 | 1000 nM | 100 nM | – | – | –
5 | CCCCn1cnc2c(NCc3ccc(C(=O)Nc4ccccc4N)cc3)nc(N)nc21 | 2000 nM | 300 nM | – | – | –
6 | Cc1cc(C)nc(NCc2ccc(C(=O)Nc3ccccc3N)cc2)n1 | 1000 nM | 300 nM | – | – | –
7 | Nc1ccccc1NC(=O)c1ccc(CNc2nc(NCCN3CCOCC3)nc(NC3Cc4ccccc4C3)n2)cc1 | 600 nM | 70 nM | 16000 nM | 1000 nM | Activity [3]: inactive; inhibition in vivo at 20 mg/kg/day [13]: 49%; Activity [4]: Active; Activity [6]: inactive; Activity [7]: inactive; Activity [9]: inactive; Activity [11]: Active; Activity [12]: Active
8 | Nc1nc(NCc2ccc(C(=O)Nc3ccccc3N)cc2)nc(NC2Cc3ccccc3C2)n1 | 600 nM | 200 nM | 8000 nM | 1000 nM | Activity [3]: inactive; Activity [4]: Active; Activity [6]: inactive; Activity [7]: inactive; Activity [9]: inactive; Activity [11]: Active; Activity [12]: Active
9 | COc1ccc(-c2ccnc(NCc3ccc(C(=O)Nc4ccccc4N)cc3)n2)cc1OC | 100 nM | 50 nM | – | – | –
10 | Nc1ccccc1NC(=O)c1ccc(CNc2ncccn2)cc1 | 2000 nM | 700 nM | – | – | –
11 | COc1cc(NCc2ccc(C(=O)Nc3ccccc3N)cc2)ncn1 | 1000 nM | 200 nM | – | – | –
12 | Nc1nc(NCc2ccc(C(=O)Nc3ccccc3N)cc2)nc(N2Cc3ccccc3C2)n1 | 500 nM | 40 nM | > 50000 nM | 1000 nM | –
13 | Nc1nc(NCCc2ccccc2)nc(NCc2ccc(C(=O)Nc3ccccc3N)cc2)n1 | 300 nM | 100 nM | 21000 nM | 1000 nM | –
14 | Nc1ccccc1NC(=O)c1ccc(CSc2ccccn2)cc1 | 1000 nM | 300 nM | – | – | –
15 | Nc1nc(NCc2ccc(C(=O)Nc3ccccc3N)cc2)c2nc[nH]c2n1 | 10000 nM | 200 nM | – | – | –
16 | Nc1ccccc1NC(=O)c1ccc(CNc2nc(NC3Cc4ccccc4C3)nc(N3CCOCC3)n2)cc1 | 2000 nM | 80 nM | > 50000 nM | 1000 nM | –
17 | Nc1nc(NCc2ccc(C(=O)Nc3ccccc3N)cc2)nc(N2CCOCC2)n1 | 800 nM | 200 nM | > 40000 nM | 5000 nM | Activity [3]: inactive; Activity [4]: Active; inhibition in vivo at 40 mg/kg/day [5]: 50%; Activity [6]: inactive; Activity [7]: inactive; Activity [9]: inactive; Activity [11]: Active; Activity [12]: Active
18 | Nc1ccccc1NC(=O)c1ccc(CNc2nc(NC3CC3)nc(NC3Cc4ccccc4C3)n2)cc1 | 1000 nM | 30 nM | 18000 nM | 1000 nM | –
19 | COc1ccc(-c2cc(Cl)nc(NCc3ccc(C(=O)Nc4ccccc4N)cc3)n2)cc1OC | 400 nM | 100 nM | – | – | –
20 | CCCCn1cnc2c(NCc3ccc(C(=O)Nc4ccccc4N)cc3)nc(Cl)nc21 | 100 nM | 50 nM | – | – | –
21 | COc1cccc(NCc2ccc(C(=O)Nc3ccccc3N)cc2)n1 | 800 nM | 100 nM | – | – | –
22 | COc1cc(OC)nc(NCc2ccc(C(=O)Nc3ccccc3N)cc2)n1 | 600 nM | 100 nM | – | – | –
23 | Cc1ccc(C#N)c(OCc2ccc(C(=O)Nc3ccccc3N)cc2)n1 | 500 nM | 300 nM | – | – | –
